Data taken from US11717509B2, “Blend containing carbamate compound for prevention, mitigation, or treatment of schizophrenia” (SK BIOPHARMACEUTICALS CO., LTD., priority 2017, dated 2023).

Tested on: animal model in which schizophrenia-like symptoms were induced by treatment with dizocilpine (MK-801)
Assay: Social interaction animal behavior test in rats with schizophrenia-like symptoms induced by dizocilpine (MK-801)
Type: in vivo, rat (Wistar, male)
Conditions: for Social interaction (Mean ± SEM) = total time of active social interactions of sniffing, grooming, licking, mounting and crawling: male Wistar rats in pairs, 5 min observation, dizocilpine 0.1 mg/kg sc 4 h before, aripiprazole 0.003 mg/kg po and/or test compound 3 mg/kg po 1 h before, 20 pairs; for total time average of active social interactions: mean±SEM, aripiprazole 0.003 mg/kg and/or test compound 3 mg/kg po; for total time average of active social interactions / Recovery rate compared to negative control: dizocilpine 0.1 mg/kg sc; for Statistical significance compared to negative control (P < 0.05?) / Statistical significance compared to positive control (P < 0.05?): one-way ANOVA, Dunnett's test; for Statistical significance compared to negative control (P < 0.05?): negative control = dizocilpine only; for Statistical significance compared to negative control (P < 0.05?) / Statistical significance compared to positive control (P < 0.05?) / Recovery rate compared to negative control: aripiprazole 0.003 mg/kg po and/or test compound 3 mg/kg po; for Statistical significance compared to positive control (P < 0.05?): positive control = vehicle group; for Recovery rate compared to negative control: versus dizocilpine-only negative control and vehicle positive control
Source text: The antipsychotic activity of the carbamate compounds of Formula 1 and aripiprazole against schizophrenia can be tested through social interaction animal behavior tests used in drug development for the negative symptoms of schizophrenia (Neill J C, Grayson B, Kiss B, Gyertyán I, Ferguson P, Adham N, Effects of cariprazine, a novel antipsychotic, on cognitive deficit and negative symptoms in a rodent model of schizophrenia symptomatology, Eur Neuropsychopharmacol. 2016 January; 26(1):3-14). […] Dizocilpine (MK-801) is an N-methyl-D-aspartate (NMDA) receptor inhibitor. In the dizocilpine-induced (MK-801-induced) social interaction animal behavior test, schizophrenia-like symptoms can be induced by administration of dizocilpine (Rung J P, Carlsson A, Ryden Markinhuhta K, Carlsson M L, (+)-MK-801 induced social withdrawal in rats; a model for negative symptoms of schizophrenia. Prog Neuropsychopharmacol Biol Psychiatry. 2005 June; 29(5):827-32). Aripiprazole, known as an atypical antipsychotic drug, inhibits schizophrenia-like symptoms in proportion to the dose of dizocilpine (Deiana S, Watanabe A, Yamasaki Y, Amada N, Kikuchi T, Stott C, Riedel G, MK-801-induced deficits in social recognition in rats: reversal by aripiprazole, but not olanzapine, risperidone, or cannabidiol. Behav Pharmacol. 2015 December; 26 (8 Spec No): 748-65).
Male rats (Wistar, 4 weeks old, Orient Bio Co., Ltd.) were purchased, divided into 2 groups in an animal breeding room and acclimatized for more than 1 week on separate shelves. The experimental animals were housed and maintained in accordance with the Laboratory Animal Care Standards of the Institutional Animal Care and Use Committee (IACUC) under conditions of light-and-darkness cycle of 12 hours, a temperature of 22 to 25° C., a relative humidity of 40-60% and free access to food and water.
Thus, an animal model is used in which schizophrenia-like symptoms can be induced by treatment of dizocilpine, an N-methyl-D-aspartate (NMDA) receptor inhibitor.
Dizocilpine (purchased from Sigma) was newly prepared by dissolving it in physiological saline used as a vehicle, and 4 hours before the experiment, a 0.1 mg/kg dose was administered subcutaneously in a volume of 1 ml per 1 kg of body weight of the rat.
Aripiprazole and the test compound were newly prepared by dissolving them in 30% polyethylene glycol 400 (Sigma) used as a vehicle. One hour before the experiment, a 0.003 mg/kg dose of aripiprazole and a 3 mg/kg dose of the test compound were administered orally in a volume of 1 ml per 1 kg of body weight of the rat.
The male rats were placed in the same observation box in pairs, allowing 1:1 interaction, and then the total time of sniffing, grooming, licking, mounting and crawling under or over the other rat which can be considered as active social interactions was measured for 5 minutes, and social interaction was evaluated based on that.
All data are expressed as mean±SEM. Statistical analysis of the total time of active social interactions between groups was performed using the GraphPad Prism ver. 5.04 program, and analyzed by one-way ANOVA (one-way analysis of variance) and Dunnett's multiple comparison test.
The recovery rate was calculated as follows.

SMILES	Social interaction (Mean ± SEM) = total time of active social interactions of sniffing, grooming, licking, mounting and crawling [s]	total time average of active social interactions [s]	Statistical significance compared to negative control (P < 0.05?)	Statistical significance compared to negative control (P < 0.05?) (listed as aripiprazole)	Statistical significance compared to positive control (P < 0.05?)	Statistical significance compared to positive control (P < 0.05?) (listed as aripiprazole)	Recovery rate compared to negative control [%]	Recovery rate compared to negative control (listed as aripiprazole) [%]	Statistical significance compared to negative control (P < 0.05?) (listed as test compound)	Statistical significance compared to positive control (P < 0.05?) (listed as test compound)	Recovery rate compared to negative control (listed as test compound) [%]
O=C1CCc2ccc(OCCCCN3CCN(c4cccc(Cl)c4Cl)CC3)cc2N1 [Aripiprazole, 7-{4-[4-(2,3-dichlorophenyl)piperazin-1-yl]butoxy}-3,4-dihydroquinolin-2(1H)-one]	57.52 ± 3.04	57.52 ± 3.04	Not significant	no statistically significant difference	Significant	statistically significant difference	23.2	23.2			
C[C@]12N[C@H](Cc3ccccc31)c1ccccc12 [Dizocilpine]	53.86 ± 2.90	53.86 ± 2.90			Significant		0.0				
NC(=O)O[C@@H](Cn1ncnn1)c1ccccc1Cl [Test compound, Carbamic acid (R)-1-(2-chlorophenyl)-2-tetrazol-2-yl-ethyl ester]	56.78 ± 2.19	56.78 ± 2.19	Not significant		Significant		18.5		no statistically significant difference	statistically significant difference	18.5
